The source of these data is patent US12655124B2, “Heterocyclic compounds as modulators of stimulator of interferon genes (STING)” (RYVU THERAPEUTICS S.A., priority 2019, dated 2026).

Where a name gives a salt, the structure may show the parent alone.

In the test the target is human STING (Homo sapiens, UniProt Q86WV6). Nature of the test: Fluorescence Thermal Shift assay (hSTING FTS binding assay).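 Note: STING preincubated with compound for 20 min in HEPES NaCl buffer pH 7.5.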 To be noted: ΔTm, STING 0.1 mg/mL, SyproOrange, 25 to 99° C. As for the experimental part: Fluorescence Thermal Shift Assay Compounds of the present invention were tested for binding to human STING in Fluorescence Thermal Shift assay. […] Final STING concentration was 0.1 mg/mL. Thermal unfolding was performed in Real-Time PCR QuantStudio 6 Flex System (Applied Biosystems), from 25 to 99° C., with continuous ramp mode and ramp rate 0.033° C./s. The data were analyzed using Protein Thermal Shift Software (ThermoFisher).
Chain of human STING (Q86WV6 whole entry H232R): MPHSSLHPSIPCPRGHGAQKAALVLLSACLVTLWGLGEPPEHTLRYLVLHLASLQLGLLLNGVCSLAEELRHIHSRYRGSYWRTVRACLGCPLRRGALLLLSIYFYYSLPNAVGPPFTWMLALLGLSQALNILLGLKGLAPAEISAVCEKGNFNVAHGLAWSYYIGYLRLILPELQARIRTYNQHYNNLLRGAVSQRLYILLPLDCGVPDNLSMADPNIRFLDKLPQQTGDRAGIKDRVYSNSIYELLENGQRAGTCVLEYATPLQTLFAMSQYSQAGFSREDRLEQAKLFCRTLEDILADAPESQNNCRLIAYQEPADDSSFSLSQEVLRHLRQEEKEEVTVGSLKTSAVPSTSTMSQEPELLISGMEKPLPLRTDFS
As to `Cc1ccc(N2CCC[C@H](N(Cc3ccnc(C)c3)Cc3cn(C)c4cc(N5CC[C@@H](O)C5)ccc4c3=O)C2)cn1` [Example 23, 7-[(3R)-3-hydroxypyrrolidin-1-yl]-1-methyl-3-({[(3S)-1-(6-methylpyridin-3-yl)piperidin-3-yl][(2-methylpyridin-4-yl)methyl]amino}methyl)-1,4-dihydroquinolin-4-one], the “hSTING FTS binding assay (ΔT ° C.)” value is “++ (10<ΔTm<20° C.)”.
With `Cc1ccc(N2CCC[C@H](N(Cc3ccnc(C)c3)Cc3cn(C4CC4)c4cc(N5CC[C@@H](N)C5)c(F)cc4c3=O)C2)cn1.Cl` [Example 12, 7-[(3R)-3-Aminopyrrolidin-1-yl]-1-cyclopropyl-6-fluoro-3-({[(3S)-1-(6-methylpyridin-3-yl)piperidin-3-yl][(2-methylpyridin-4-yl)methyl]amino}methyl)-1,4-dihydroquinolin-4-one Hydrochloride] the entry was “+++ (ΔTm≥20° C.)”; with `Cc1ccc(N2CCC[C@H](N(Cc3ccnc(C)c3)Cc3cn(C4CC4)c4cc(NCCN(C)C)c(F)cc4c3=O)C2)cn1` [Example 9, 1-Cyclopropyl-7-{[2-(dimethylamino)ethyl]amino}-6-fluoro-3-({[(3S)-1-(6-methylpyridin-3-yl)piperidin-3-yl][(2-methylpyridin-4-yl)methyl]amino}methyl)-1,4-dihydroquinolin-4-one], “+++ (ΔTm≥20° C.)”.
With `Cc1ccc(N2CCC[C@H](N(Cc3ccnc(N)c3)Cc3cn(C4CC4)c4cc(F)c(F)cc4c3=O)C2)cn1` [Example 5, 3-({[(2-Aminopyridin-4-yl)methyl][(3S)-1-(6-methylpyridin-3-yl)piperidin-3-yl]amino}methyl)-1-cyclopropyl-6,7-difluoro-1,4-dihydroquinolin-4-one Hydrochloride] the entry was “+++ (ΔTm≥20° C.)”; with `Cc1ccc(N2C[C@@H](F)C[C@H](N(Cc3ccnc(C)c3)Cc3cn(C4CC4)c4cc(OCCO)c(F)cc4c3=O)C2)cn1` [Example 75, 1-cyclopropyl-6-fluoro-3-({[(3S,5S)-5-fluoro-1-(6-methylpyridin-3-yl)piperidin-3-yl][(2-methylpyridin-4-yl)methyl]amino}methyl)-7-(2-hydroxyethoxy)-1,4-dihydroquinolin-4-one], “+++ (ΔTm≥20° C.)”.
With `CNC1CCN(c2cc3c(cc2F)c(=O)c(CN(Cc2ccnc(C)c2)[C@H]2CCCN(c4ccc(C)nc4)C2)cn3C2CC2)C1` (stereo partly drawn) [Example 33, 1-cyclopropyl-6-fluoro-7-[3-(methylamino)pyrrolidin-1-yl]-3-({[(3S)-1-(6-methylpyridin-3-yl)piperidin-3-yl][(2-methylpyridin-4-yl)methyl]amino}methyl)-1,4-dihydroquinolin-4-one] the entry was “+++ (ΔTm≥20° C.)”.
Regarding `Cc1ccc(N2CCC[C@H](N(Cc3ccnc(C)c3)Cc3cn(C4CC4)c4cc(OCCN)c(F)cc4c3=O)C2)cn1` [Example 10, 7-(2-Aminoethoxy)-1-cyclopropyl-6-fluoro-3-({[(3S)-1-(6-methylpyridin-3-yl)piperidin-3-yl][(2-methylpyridin-4-yl)methyl]amino}methyl)-1,4-dihydroquinolin-4-one], the “hSTING FTS binding assay (ΔT ° C.)” value is “+++ (ΔTm≥20° C.)”.
The entry for `Cc1ccc(N2CCC[C@H](N(Cc3ccnc(C)c3)Cc3cn(C4CC4)c4cc(N5CC(N)C6(CC6)C5)c(F)cc4c3=O)C2)cn1.Cl` (stereo partly drawn) [Example 22, 7-{7-amino-5-azaspiro[2.4]heptan-5-yl}-1-cyclopropyl-6-fluoro-3-({[(3S)-1-(6-methylpyridin-3-yl)piperidin-3-yl][(2-methylpyridin-4-yl)methyl]amino}methyl)-1,4-dihydroquinolin-4-one Hydrochloride] is “+++ (ΔTm≥20° C.)”; for `Cc1cc(CN(Cc2cn(C3CC3)c3cc(N4CCC[C@H](O)C4)c(F)cc3c2=O)[C@H]2CCCN(c3cccnc3)C2)ccn1.Cl` [Example 86, 1-cyclopropyl-6-fluoro-7-[(3S)-3-hydroxypiperidin-1-yl]-3-({[(2-methylpyridin-4-yl)methyl][(3S)-1-(pyridin-3-yl)piperidin-3-yl]amino}methyl)-1,4-dihydroquinolin-4-one Hydrochloride] it is “+++ (ΔTm≥20° C.)”; for `Cc1ccc(N2CCC[C@H](N(Cc3ccnc(C)c3)Cc3cn(C4CC4)c4cc(N5CCC[C@@H](N)C5)c(F)cc4c3=O)C2)cn1` [Example 17, 7-[(3R)-3-Aminopiperidin-1-yl]-1-cyclopropyl-6-fluoro-3-({[(3S)-1-(6-methylpyridin-3-yl)piperidin-3-yl][(2-methylpyridin-4-yl)methyl]amino}methyl)-1,4-dihydroquinolin-4-one] it is “+++ (ΔTm≥20° C.)”.
With `Cc1ccc(N2CCC[C@H](N(Cc3ccnc(C)c3)Cc3cn(C4CC4)c4cc(N5CCC[C@@H](O)C5)c(F)cc4c3=O)C2)cn1.Cl` [Example 28, 1-cyclopropyl-6-fluoro-7-[(3R)-3-hydroxypiperidin-1-yl]-3-({[(3S)-1-(6-methylpyridin-3-yl)piperidin-3-yl][(2-methylpyridin-4-yl)methyl]amino}methyl)-1,4-dihydroquinolin-4-one Hydrochloride] the entry was “+++ (ΔTm≥20° C.)”; with `Cc1cc(CN(Cc2cn(C3CC3)c3cc(N4CC[C@@H](O)C4)c(F)cc3c2=O)[C@H]2CCCN(c3cccnc3)C2)ccn1` [Example 78, 1-cyclopropyl-6-fluoro-7-[(3R)-3-hydroxypyrrolidin-1-yl]-3-({[(2-methylpyridin-4-yl)methyl][(3S)-1-(pyridin-3-yl)piperidin-3-yl]amino}methyl)-1,4-dihydroquinolin-4-one], “+++ (ΔTm≥20° C.)”.
Regarding `Cc1ccc(N2CCC[C@H](N(Cc3ccnc(C)c3)Cc3cn(C4CC4)c4cc(N5CC[C@@H](N)C(F)(F)C5)c(F)cc4c3=O)C2)cn1.Cl` (single isomer, unassigned) [Example 56], the “hSTING FTS binding assay (ΔT ° C.)” value is on record as “+++ (ΔTm≥20° C.)”.
With `Cc1ccc(N2CCC[C@H](N(Cc3ccnc(C)c3)Cc3cn(C4CC4)c4cc(N5CCC(O)CC5)c(F)cc4c3=O)C2)cn1.Cl` [Example 32, 1-cyclopropyl-6-fluoro-7-(4-hydroxypiperidin-1-yl)-3-({[(3S)-1-(6-methylpyridin-3-yl)piperidin-3-yl][(2-methylpyridin-4-yl)methyl]amino}methyl)-1,4-dihydroquinolin-4-one Hydrochloride] the entry was “+++ (ΔTm≥20° C.)”; with `Cc1ccc(N2CCC[C@H](N(Cc3ccnc(C)c3)Cc3cn(C4CC4)c4cc(N5CCC6NCCC6C5)c(F)cc4c3=O)C2)cn1` (stereo partly drawn) [Example 68, 1-cyclopropyl-6-fluoro-3-({[(3S)-1-(6-methylpyridin-3-yl)piperidin-3-yl][(2-methylpyridin-4-yl)methyl]amino}methyl)-7-{octahydro-1H-pyrrolo[3,2-c]pyridin-5-yl}-1,4-dihydroquinolin-4-one], “+++ (ΔTm≥20° C.)”.
For `Cc1ccc(N2CCC[C@H](N(Cc3ccnc(C)c3)Cc3cn(C4CC4)c4cc(N5CC[C@H](N)C5)c(F)cc4c3=O)C2)cn1.Cl` [Example 13, 7-[(3S)-3-Aminopyrrolidin-1-yl]-1-cyclopropyl-6-fluoro-3-({[(3S)-1-(6-methylpyridin-3-yl)piperidin-3-yl][(2-methylpyridin-4-yl)methyl]amino}methyl)-1,4-dihydroquinolin-4-one Hydrochloride], the “hSTING FTS binding assay (ΔT ° C.)” value is given as “+++ (ΔTm≥20° C.)”.
The entry for `COCCn1cc(CN(Cc2ccnc(C)c2)[C@H]2CCCN(c3ccc(N)nc3)C2)c(=O)c2ccccc21.Cl` [Example 21, 3-({[(3S)-1-(6-aminopyridin-3-yl)piperidin-3-yl][(2-methylpyridin-4-yl)methyl]amino}methyl)-1-(2-methoxyethyl)-1,4-dihydroquinolin-4-one Hydrochloride] is “+++ (ΔTm≥20° C.)”; for `Cc1ccc(N2CCC[C@H](N(Cc3ccnc(C)c3)Cc3cn(C4CC4)c4cc(N5CC[C@@H](O)C5)c(F)cc4c3=O)C2)cn1.Cl` [Example 14, 1-Cyclopropyl-6-fluoro-7-[(3R)-3-hydroxypyrrolidin-1-yl]-3-({[(3S)-1-(6-methylpyridin-3-yl)piperidin-3-yl][(2-methylpyridin-4-yl)methyl]amino}methyl)-1,4-dihydroquinolin-4-one Hydrochloride] it is “+++ (ΔTm≥20° C.)”.
`Cc1ccc(N2CCC[C@H](N(Cc3ccnc(C)c3)Cc3cn(C4CC4)c4cc(N5CCCC(C(=O)O)C5)c(F)cc4c3=O)C2)cn1` (stereo partly drawn) [Example 66, 1-[1-cyclopropyl-6-fluoro-3-({[(3S)-1-(6-methylpyridin-3-yl)piperidin-3-yl][(2-methylpyridin-4-yl)methyl]amino}methyl)-4-oxo-1,4-dihydroquinolin-7-yl]piperidine-3-carboxylic Acid]: the “hSTING FTS binding assay (ΔT ° C.)” value is given as “+++ (ΔTm≥20° C.)”.
Consider `Cc1cc(CN(Cc2cn(C3COC3)c3ccccc3c2=O)[C@H]2CCCN(c3ccc(N)nc3)C2)ccn1` [Example 35, 3-({[(3S)-1-(6-aminopyridin-3-yl)piperidin-3-yl][(2-methylpyridin-4-yl)methyl]amino}methyl)-1-(oxetan-3-yl)-1,4-dihydroquinolin-4-one], for which the “hSTING FTS binding assay (ΔT ° C.)” value was “+++ (ΔTm≥20° C.)”.
For `Cc1ccc(N2CCC[C@H](N(Cc3ccnc(C)c3)Cc3cn(C)c4cc(N5CCC(N)CC5)ccc4c3=O)C2)cn1.Cl` [Example 6, 7-(4-Aminopiperidin-1-yl)-1-methyl-3-({[(3S)-1-(6-methylpyridin-3-yl)piperidin-3-yl][(2-methylpyridin-4-yl)methyl]amino}methyl)-1,4-dihydroquinolin-4-one Hydrochloride], the “hSTING FTS binding assay (ΔT ° C.)” value is recorded as “++ (10<ΔTm<20° C.)”.
